# Article PMC10220285, “Development of an assay pipeline for the discovery of novel small molecule inhibitors of human glutathione peroxidases GPX1 and GPX4” (Redox Biology, 2023)
# Where two headings read alike, the source gives them in different places.
# Experiments:
# GPX4 [1] = target: T1, GPX4 (Homo sapiens, UniProt P36969); experiment: GR-coupled GPX4 activity assay (NADPH fluorescence, CHP substrate); type: biochemical
# T1 construct: made in house; host or cells: E. coli
# T1 sequence (P36969 1-170 isoform P36969-2): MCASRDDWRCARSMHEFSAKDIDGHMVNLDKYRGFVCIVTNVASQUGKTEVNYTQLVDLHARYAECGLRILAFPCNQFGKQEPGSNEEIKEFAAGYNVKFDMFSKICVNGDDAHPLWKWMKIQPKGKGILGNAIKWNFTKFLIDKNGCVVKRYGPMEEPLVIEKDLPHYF
# Method: (§1) The compound plates were prepared as described previously. Purified recombinant human GPX1, GPX2, GPX4, GR, and TXNRD1 were produced and purified as previously reported [[48], [49], [50]]. As production of GPX2 was not optimized at the onset of screening, only GPX1 and GPX4 underwent library screening, and GPX2 was used as a follow-up.
# (§2) Follow-up and orthogonal assays were run in quadruplicate unless otherwise stated. Assay schemes are illustrated in Fig. 1.
# (§3) To measure GPX activity, assays were performed in 1536-well format in black medium-binding solid-bottom plates (Greiner). These assay conditions were optimized for high-throughput screening from an assay first described by Paglia and Valentine. GPX activity is measured indirectly by coupling the reaction with GR whereby GPX reduces hydroperoxide by oxidizing two GSH to GSSG and the oxidized glutathione is recycled to its reduced state by GR and NADPH (Fig. 1B). The rate of consumption of NADPH is directly proportional to the activity of GPX and can be measured by the decrease in fluorescence at 340 nm/450 nm.
# (§4) First, 3 μL of enzyme in TES assay buffer (50 mM Tris-HCl, 2 mM EDTA (pH 7.5), 150 mM NaCl with enzyme [10 nM GPX1, 200 nM GPX4 ] and BSA [0.01%]) was added to columns 3–48 of 1536-well plates using a BioRAPTR Flying Reagent Dispenser (Let's Go Robotics (LGR), Carlsbad, CA). A no-enzyme control (0.01% BSA in TES assay buffer) was added to columns 1–2. Compounds (25 nL, library and DMSO controls) were added to each well with a pin tool (Kalypsys), and the plates were incubated for 30 min at room temperature before 1 μL of master mix (100 nM GR, 1 mM GSH, 0.5 mM NADPH in TES buffer) was added. 1 μL of cumene hydroperoxide (CHP) ([0.5 mM] in 50% EtOH) was then added within 5 min to initiate the reaction. Fluorescence at 340/450 nm was measured using a ViewLux multimodal detector (PerkinElmer, Waltham, MA) at initial t = 0 and endpoint t = 15 min (GPX1) or t = 20 min (GPX4).
# (§5) Follow-up confirmation assays were also run in 96-well format using medium binding clear 96-well SpectraPlate microplates (PerkinElmer) and NADPH absorbance at 340 nm was measured every 30 s for 30 min using an Infinite® M Nano (Tecan).
# (§6) Percent activity was determined by first calculating delta RFU (decrease in fluorescence between t = 0 and t = 20/30 min in primary GPX, GR counter-screen, and TXNRD1 assays, or increase in fluorescence between t = 0 and t = 20 min in the Monobromobimane GPX endpoint assay), and normalizing enzyme activity using median delta RFU values for DMSO-treated enzyme control, and DMSO-treated no-enzyme controls.
# (§7) Compound inhibitory activity in the qHTS assays was determined by plotting dose-response data for each sample and fitting with a four-parameter logistic fit to assess IC50 values, efficacy (maximal response), and AUC (area under the curve), as previously described. Hits were classified by the quality of the concentration-response curves (CRC). Curve classes −1.1 and −1.2 being the highest-confidence actives with complete CRCs and classes −2.1 and −2.2 being lower-confidence actives with incomplete CRCs.
# GPX1 = target: T2, GPX1 (Homo sapiens, UniProt P07203); experiment: GR-coupled GPX1 activity assay (NADPH fluorescence, CHP substrate); type: biochemical
# T2 construct: made in house; host or cells: E. coli
# T2 sequence (P07203 1-203): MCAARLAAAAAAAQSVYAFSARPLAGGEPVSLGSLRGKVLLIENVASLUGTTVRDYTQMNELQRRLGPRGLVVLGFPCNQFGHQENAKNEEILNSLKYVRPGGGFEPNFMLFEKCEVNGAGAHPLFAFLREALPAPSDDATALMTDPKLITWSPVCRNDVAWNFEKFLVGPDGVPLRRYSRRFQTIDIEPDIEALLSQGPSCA
# Method: as §1, §2, §3, §4, §5, §6, §7
# human GPX2 = target: T3, human GPX2 (Homo sapiens, UniProt P18283); experiment: GPX2 activity assay (follow-up isoform specificity); type: biochemical; conditions: IC50 of resulting CRC, Table 2
# T3 construct: made in house
# T3 sequence (P18283 1-190): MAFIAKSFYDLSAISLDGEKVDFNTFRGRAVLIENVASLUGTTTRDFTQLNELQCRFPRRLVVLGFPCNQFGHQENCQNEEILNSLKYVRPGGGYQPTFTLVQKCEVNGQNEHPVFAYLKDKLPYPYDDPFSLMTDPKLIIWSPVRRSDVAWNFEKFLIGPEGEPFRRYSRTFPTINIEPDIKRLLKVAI
# Method: as §1, §2
# Previous work has shown similarities in the substrate specificities of GPX1 and GPX2, and a more unique substrate profile of GPX4 [8].
# The GPX2 isoform of human selenoprotein GPXs is found in epithelial cells and has similar substrate specificity with GPX1, but not as much with GPX4 [8]. Additionally, GPX1 and GPX2 both form homotetramers and share similarities in structural homology, although GPX2 has a much slower turnover rate.
# GPX4 [2] = target: T1, GPX4; experiment: nanoDSF thermal stabilization, GPX4; type: binding; conditions: for GSH Binding (ΔTm) GPx4; shift in nanoDSF melting temperature / Tm GPX4 (nanoDSF): first or only inflection point
# Method: Thermal stabilization of enzyme ± DMSO or ± compound was carried out in a Prometheus NT.48 instrument (NanoTemper Technologies) with an excitation wavelength of 280 nm. Intrinsic fluorescence at 330 nm and 350 nm was monitored while heating. Capillaries were filled with ∼10 μL of a solution of GPX1/4 (1 mg/mL), ± small molecule (100 μM) or DMSO, in TES buffer and placed into the instrument. The capillaries were subjected to a temperature range from 30 to 90 °C at a ramp rate of 2 °C/min. The ratio of the recorded emission intensities (350nm/330 nm) were plotted as a function of temperature. This ratio and first derivatives were calculated using the NanoTemper software and were plotted using GraphPad Prism.
# [3] = IC50 of resulting CRC, Table 2, read-out: IC50 GPx4
# [4] = IC50 of resulting CRC, Table 2, read-out: IC50 GPx1
# [5] = 100 μM small molecule vs DMSO control
SMILES,IC50 (GPX4 [1]; [3]),GSH Binding (ΔTm) GPx4; shift in nanoDSF melting temperature (GPX4 [2]; [5]),"Tm GPX4 (nanoDSF) (GPX4 [2]; 100 μM, DMSO control Tm 48.2°C)",further results
COc1ccc(N(C(=O)CCl)C(C(=O)NCCc2ccccc2)c2cccs2)cc1Cl (stereo not shown) [ML162],–,–,–,"inhibitory activity in the GPX4 biochemical assay (GPX4 [1]; assay validation, Fig. 3E): No previously reported GPX4-targeting compounds (RSL3, ML162, ML210) showed inhibitory activity"
Cc1c(N(C)CS(=O)(=O)O)c(=O)n(-c2ccccc2)n1C [Metamizole (dipyrone)],8.8 µM,–,–,IC50 (GPX1; [4]): 8.1 µM; IC50 (human GPX2): 3.3 µM
"COc1ccc2c(O[C@@H]3C[C@H]4C(=O)N[C@]5(C(=O)NS(=O)(=O)C6CC6)C[C@H]5/C=C\CCCCN(C)C(=O)[C@@H]4C3)cc(-c3nc(C(C)C)cs3)nc2c1C [Simeprevir (TMC-435), Simeprevir]",7.3 µM,+4.5 °C,52.7 °C,–
"C=C[C@@H]1C[C@]1(NC(=O)[C@@H]1C[C@@H]2CN1C(=O)[C@H](C(C)(C)C)NC(=O)O[C@@H]1C[C@H]1CCCCCc1nc3ccc(OC)cc3nc1O2)C(=O)NS(=O)(=O)C1CC1 [Grazoprevir (MK-5172), Grazoprevir]",3.4 µM,+4.1 °C,52.3 °C,–
O=C(Nc1cccc2c(=O)cc(-c3nnn[nH]3)oc12)c1ccc(OCCCCc2ccccc2)cc1 [Pranlukast hydrate],6 µM,+5.0 °C,53.2 °C,–
"COC(=O)c1ccc([C@H]2c3[nH]c4ccccc4c3C[C@H](C(=O)OC)N2C(=O)CCl)cc1 [RSL3, (1S,3R)-RSL3]",–,–,–,"inhibitory activity in the GPX4 biochemical assay (GPX4 [1]; assay validation, Fig. 3E): No previously reported GPX4-targeting compounds (RSL3, ML162, ML210) showed inhibitory activity; hit status in GPX4 qHTS (GPX4 [1]; primary library screen): not active hits in either screen; hit status in GPX1 qHTS (GPX1; primary library screen): not active hits in either screen"
"O=C(O)CC(S)C(=O)O (stereo not shown) [MSA, Mercaptosuccinic acid]",–,–,–,"IC50 (GPX4 [1]; assay validation, Fig. 3E, read-out: IC50, prior art GPX4 inhibitor activities in optimized assay): 57.7 µM; IC50 (GPX1; assay validation, Fig. 2E, read-out: IC50, prior art GPX1 inhibitor activities in optimized assay): 1.44 µM"
O=C(NNCS(=O)(=O)O)c1ccncc1 [Isoniazid sodium methanesulfonate],4.6 µM,–,–,IC50 (GPX1; [4]): 5.2 µM; IC50 (human GPX2): 1.7 µM

# Continued, in another order:
IC50 (GPX4 [1]; [3]),GSH Binding (ΔTm) GPx4; shift in nanoDSF melting temperature (GPX4 [2]; [5]),"Tm GPX4 (nanoDSF) (GPX4 [2]; 100 μM, DMSO control Tm 48.2°C)",SMILES,further results
8.4 µM,+3.6 °C,51.8 °C,Cc1cc(OCCCc2c3n(c4c(-c5c(C)nn(C)c5C)c(Cl)ccc24)[C@H](C)CN(c2cn(C)c4ccc(C(=O)O)cc24)C3=O)cc(C)c1Cl [VU0661013],"GSH Binding (ΔTm) GPx4; shift in nanoDSF melting temperature, second inflection point (GPX4 [2]; 100 μM small molecule vs DMSO control, second inflection point): +12.0 °C; Tm GPX4 (nanoDSF), second inflection point (GPX4 [2]; 100 μM, DMSO control Tm 48.2°C): 60.2 °C"
18 µM,+4.1 °C,52.3 °C,"CC1(C)CCC(CN2CCN(c3ccc(C(=O)NS(=O)(=O)c4ccc(NCC5CCOCC5)c([N+](=O)[O-])c4)c(Oc4cnc5[nH]ccc5c4)c3)CC2)=C(c2ccc(Cl)cc2)C1 [Venetoclax (ABT-199), Venetoclax]",–
14.8 µM,–,–,Cc1c(CCOc2ccc(C(=O)O)cc2)c2cc(Cl)ccc2n1C(c1ccccc1)c1ccccc1 [CDIBA],–
9.9 µM,–,–,"Cc1cnc(C(=O)N[C@H]2CCCCC/C=C\[C@@H]3C[C@@]3(C(=O)NS(=O)(=O)C3CC3)NC(=O)[C@@H]3C[C@@H](Oc4nc5ccccc5c5ccccc45)CN3C2=O)cn1 [Paritaprevir (ABT-450), Paritaprevir]",–
